Data on 32 compounds can be found in patent US20040110802A1, “Antibacterial benzoic acid derivatives” (priority 2002, published 2004).

Values after ≈ are worked out from the molar mass of the structure shown.

The test system of the experiment is SAUR 9218. Description: MIC Test Method, standard agar dilution. As to conditions: agar dilution, Mueller Hinton agar, incubated overnight at 35° C.; lowest concentration that inhibits visible growth; read-out: SAUR 9218 MIC. The experiment is classed as cell-based. The procedure, abridged: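 Agar dilution in Mueller Hinton agar with serial 2-fold compound dilutions. Staphylococcus aureus strain 9218 spotted at approximately 10^4 to 10^5 cells per spot, incubated overnight at 35 °C; MIC (μg/ml) is the lowest concentration preventing visible growth.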
On the technique in general: In agar dilution, organisms are placed on agar that contains the substance at set levels.

On to `Cc1c(S(=O)(=O)NC2Cc3ccccc3C2)csc1C(=O)Nc1ccc(Br)cc1C(=O)O`, for which the MIC (in general, the smallest concentration in the dilution series that meets the test's criterion for growth inhibition) came out at 16 µg/mL (≈ 29.9 µM).
As to `Cc1sc(C(=O)Nc2ccc(Br)cc2C(=O)O)cc1S(=O)(=O)Nc1ccc2c(c1)OCCO2`, the minimal inhibitory concentration (MIC) worked out at 8 µg/mL (≈ 14.5 µM).
As to `Cc1sc(C(=O)Nc2ccc(Br)cc2C(=O)O)cc1S(=O)(=O)NCCc1ccc(N)cc1`, the minimal inhibitory concentration (MIC) was 32 µg/mL (≈ 59.4 µM).
Turning to `CC(C)NC(=O)Nc1ccc2cc(C(=O)Nc3ccc(C#N)cc3C(=O)O)n(C)c2c1`, the minimum inhibitory concentration (MIC) is 0.5 µg/mL (≈ 1.19 µM).
In the case of `CNS(=O)(=O)c1ccc2onc(C(=O)Nc3ccc(C#N)cc3C(=O)O)c2c1`, the minimum inhibitory concentration (MIC) came to 0.06 µg/mL (≈ 0.15 µM).
On to `N#Cc1ccc(NC(=O)c2noc3ccc(S(=O)(=O)N(CCO)CCO)cc23)c(C(=O)O)c1`, for which the MIC is 0.5 µg/mL (≈ 1.05 µM).
Consider `CC(=O)Nc1ccc(S(=O)(=O)N(c2ccc3cc(C(=O)Nc4ccc(C#N)cc4C(=O)O)n(C)c3c2)S(=O)(=O)c2ccc(NC(C)=O)cc2)cc1`, for which the minimum inhibitory concentration (MIC) is 1 µg/mL (≈ 1.37 µM).
`Cn1c(C(=O)Nc2ccc(C#N)cc2C(=O)O)cc2ccc(N(S(=O)(=O)c3cccs3)S(=O)(=O)c3cccs3)cc21`: the MIC came to 0.06 µg/mL (≈ 0.0957 µM).
Turning to `CN(C)S(=O)(=O)c1ccc2onc(C(=O)Nc3ccc(Br)cc3C(=O)O)c2c1`, the minimal inhibitory concentration (MIC) turned out to be 0.25 µg/mL (≈ 0.534 µM).
As to `CCN(CC)S(=O)(=O)c1ccc2onc(C(=O)Nc3ccc(Br)cc3C(=O)O)c2c1`, the MIC was found to be 0.25 µg/mL (≈ 0.504 µM).
Take `O=C(O)c1cc(Br)ccc1NC(=O)c1noc2ccc(S(=O)(=O)NCc3ccccc3)cc12`: the minimal inhibitory concentration (MIC) amounted to 0.06 µg/mL (≈ 0.113 µM).
For the compound `CC(=O)Nc1ccc(-c2cc3onc(C(=O)Nc4ccc(Br)cc4C(=O)O)c3cc2NC(C)=O)c(C(F)(F)F)c1`, the minimum inhibitory concentration (MIC) stood at 0.0075 µg/mL (≈ 0.0121 µM).
For the compound `CC(=O)Nc1cccc(-c2ccc3onc(C(=O)Nc4ccc(C#N)cc4C(=O)O)c3c2)c1`, the MIC came to 0.5 µg/mL (≈ 1.14 µM).
With `CS(=O)(=O)c1ccc(-c2ccc3onc(C(=O)Nc4ccc(C#N)cc4C(=O)O)c3c2)cc1`, the MIC was 0.5 µg/mL (≈ 1.08 µM).
With `O=C(O)c1cc(Br)ccc1NC(=O)c1noc2ccc(S(=O)(=O)N3CCCC3)cc12`, the MIC amounted to 0.25 µg/mL (≈ 0.506 µM).
For `CNS(=O)(=O)c1ccc2onc(C(=O)Nc3ccc(Br)cc3C(=O)O)c2c1`, the minimal inhibitory concentration (MIC) stood at 0.125 µg/mL (≈ 0.275 µM).
The value for `NS(=O)(=O)c1ccc2onc(C(=O)Nc3ccc(Br)cc3C(=O)O)c2c1` was 0.25 µg/mL (≈ 0.568 µM); that for `Cn1c(C(=O)Nc2ccc(C#N)cc2C(=O)O)cc2ccc(NC(=O)N3CCOCC3)cc21` was 4 µg/mL (≈ 8.94 µM); that for `N#Cc1ccc(NC(=O)c2noc3ccc(-c4ccc(C(=O)N5CCOCC5)cc4)cc23)c(C(=O)O)c1` was 0.25 µg/mL (≈ 0.504 µM).
On to `CC(=O)c1ccccc1-c1ccc2onc(C(=O)Nc3ccc(C#N)cc3C(=O)O)c2c1`, for which the minimum inhibitory concentration (MIC) was 0.5 µg/mL (≈ 1.18 µM).
As to `COc1ccc(OC)c(-c2ccc3onc(C(=O)Nc4ccc(C#N)cc4C(=O)O)c3c2)c1`, the MIC stood at 0.25 µg/mL (≈ 0.564 µM).
On to `N#Cc1ccc(NC(=O)c2cc(-c3ccccc3Oc3ccccc3)on2)c(C(=O)O)c1`, for which the MIC stood at 0.03 µg/mL (≈ 0.0705 µM).
For `CC(=O)Nc1cccc(-c2cccc3cc(C(=O)Nc4ccc(C#N)cc4C(=O)O)n(C)c23)c1` the value was 0.5 µg/mL (≈ 1.11 µM); for `Cc1ccccc1-c1ccc2c(C(=O)Nc3ccc(C#N)cc3C(=O)O)noc2c1`, 0.06 µg/mL (≈ 0.151 µM); for `O=C(Nc1ccc(Br)cc1C(=O)O)c1cnc(CC[C@H](O)CO)cn1`, 64 µg/mL (≈ 156 µM).
With `Cc1noc(C)c1-c1ccc2c(C(=O)Nc3ccc(C#N)cc3C(=O)O)noc2c1`, the MIC was 0.125 µg/mL (≈ 0.311 µM).
On to `CC(=O)Nc1ccccc1-c1ccc2onc(C(=O)Nc3ccc(C#N)cc3C(=O)O)c2c1`, for which the minimum inhibitory concentration (MIC) came out at 0.5 µg/mL (≈ 1.14 µM).
Regarding `CCS(=O)(=O)Nc1cccc2cc(C(=O)Nc3ccc(C#N)cc3C(=O)O)n(C)c12`, the minimum inhibitory concentration (MIC) amounted to 0.5 µg/mL (≈ 1.17 µM).
Take `Cn1c(C(=O)Nc2ccc(C#N)cc2C(=O)O)cc2cccc(N(S(C)(=O)=O)S(C)(=O)=O)c21`: the minimal inhibitory concentration (MIC) worked out at 0.125 µg/mL (≈ 0.255 µM).
On to `Cn1cnc(S(=O)(=O)Nc2cccc3cc(C(=O)Nc4ccc(C#N)cc4C(=O)O)n(C)c23)c1`, for which the MIC is 0.5 µg/mL (≈ 1.04 µM).
For the compound `Cc1nn(C)c(Cl)c1S(=O)(=O)Nc1cccc2cc(C(=O)Nc3ccc(C#N)cc3C(=O)O)n(C)c12`, the minimal inhibitory concentration (MIC) amounted to 0.125 µg/mL (≈ 0.237 µM).
The value for `CCCCS(=O)(=O)Nc1cccc2cc(C(=O)Nc3ccc(C#N)cc3C(=O)O)n(C)c12` was 0.25 µg/mL (≈ 0.55 µM).
